# What was measured:
# Assay type in all cases: cell-based, human
# [1] = tested on: MCF-7 breast cancer cells; experiment: InnoCyte cell migration assay, MCF-7; conditions: MCF-7 cells, 1120 nM SMR peptide or 3 μM Latrunculin A, 24 hours
# Description: (§1) 7-12. Cell migration assay. Cell migration assays were performed using the InnoCyte Cell Migration Assay (EMD Millipore Corporation, Temecula, Calif.) according to the manufacturer's instructions. Briefly, cell migration was monitored in the presence and absence of SMRwt peptides or latrunculin A (positive control inhibitor), which were added to the lower chamber of a 96-well plate. MCF-7 and MDA-MB-231 breast cancer cells and non-tumorigenic MCF-10A breast cells were harvested by 0.25% Trypsin-EDTA (Life Technologies) release and resuspended at 250,000500,000 cells/ml in serum-free RPMI 1640 media. A total of 25,000-50,000 cells was added to the upper chamber and allowed to migrate through an 8-μm pore-size membrane for 24 hours at 37° C. in a 5% CO2 atmosphere. Cells that migrated through the membrane were detached and labeled with Calcein-AM fluorescent dye. Fluorescence was measured using a Fluorescence Plate Reader (Molecular Devices, Sunnyvale, Calif.) with an excitation wavelength of 485 nm and an emission wavelength of 515 nm. The experiment was repeated in triplicate, and each conditioned experiment was performed in quadruplicate.
# [2] = tested on: MDA-MB-231 breast cancer cells; experiment: InnoCyte cell migration assay, MDA-MB-231; conditions: MDA-MB-231 cells, 280 nM SMR peptide or 3 μM Latrunculin A, 24 hours
# Description: as §1
# [3] = tested on: MCF-7 breast cancer cells; experiment: Exosome release by acetylcholinesterase (AchE) assay, MCF-7; conditions: MCF-7 cells, five-day treatment
# Description: (§2) 1-6. Exosome isolation and purification. Exosomes were isolated from breast cancer cells by differential centrifugation as previously described (Ali SA. et al., 2010). Untreated tumor cells were used as a control. Briefly, the above treated and untreated cell culture supernatants were centrifuged at 400×g for 10 minutes. The supernatants were transferred to a clear tube and centrifuged at 10,000×g for 30 minutes. The supernatants from the second spin were ultracentrifuged at 200,000×g for 2 hours to pellet exosomes. Finally, the exosome pellets were re-suspended with PBS and stored at 4° C. until used for analysis.
# (§3) 1-7. Exosome characterization by acetylcholinesterase (AchE) assay. Purified exosomes were quantitated by measurement of AchE as described (Ellman et al., 1961). Briefly, a 100 mM dithibionitrobenzoic (DTNB) solution was prepared for use as a stock color indicator, and a 28.9 mg/mL acetylthiocholine iodide in PBS solution was prepared as a stock substrate. The stock substrate stock can be stored at −20° C. up to one month, while the color indicator can be stored at 4° C. for two weeks. A working solution was prepared by mixing 10 mL of PBS with 200 μL of Substrate and 500 μl of DTNB. 50 μL of each exosome sample was transferred to 96 well microtitre plates, and a standard curve was prepared using AchE from 0.98 mU/mL to 2000 mU/mL. After 50 μL of standards were added into separate wells, 200 μL of the working solution was added to all wells. After 20 min incubation, AchE activity was measured at 450 nm using a SpectroMax M5 fluorimeter.
# (§4) 7-5. Exosome isolation and purification. Exosomes were isolated from breast cancer cells and leukemia cells using the ExoQuick-TC Exosome Precipitation Kit (System Biosciencences [SBI], Mountain View Calif.) or the miRCURY Exosome Isolation Kit (EXIQON, Woburn, Mass.) according to the manufacturer's instructions. Untreated tumor cells were used as a control. Briefly, treated and untreated cell culture supernatants (10 mL) were centrifuged at 3000×g for 15 minutes. The resulting supernatants were transferred to a clear tube, 2 mL of ExoQuick-TC buffer was added, mixed and incubated overnight at 4° C. Following the incubation, the sample contents were centrifuged at 1500×g for 30 minutes, the supernatants were aspirated off, the pellets were centrifuged at 1500×g for 5 minutes and any further traces of supernatant were removed (SBI). Alternatively, treated and untreated cell culture supernatants were centrifuged at 10,000×g for 5 minutes to remove cell debris, supernatants (10 ml) were transferred into new tubes, and 4 mL of precipitation buffer (EXIQON) was added, and the contents were mixed and incubated at 4° C. overnight. Following the incubation, the sample contents were centrifuged at 10,000×g for 30 minutes (EXIQON). Exosome-containing pellets were re-suspended in PBS and stored at 4° C. or −80° C.
# (§5) 7-6. Exosome characterization by acetylcholinesterase (AchE) assay. Purified exosomes were quantitated by measurement of AchE as previously described (Huang et al., Oncotarget, 2017. 8(7): pp. 11302-11315). Briefly, 100 mM dithibionitrobenzoic (DTNB) was prepared as a stock color indicator, and prepared a stock substrate containing 28.9 mg/mL of acetylthiocholine iodide in PBS. Substrate stock can be stored at −20° C. up to one month; the stock color indicator can be stored at 4° C. for two weeks. A working solution was prepared by mixing 10 mL of PBS with 200 μL of substrate and 500 μl of DTNB. 50 μL of each exosome sample was transferred to a 96 well microtitre plate, and a standard curve for AchE concentrations was prepared using AchE from 0.98 mU/mL to 2000 mU/mL. After 50 μL of standards were added into separate wells, 200 μL of the working solution was added to each well. After a 20 min incubation, AchE activity was measured at 450 nm using a SpectroMax M5 fluorometer (FIG. 11).
# [4] = tested on: MDA-MB-231 breast cancer cells; experiment: Exosome release by acetylcholinesterase (AchE) assay, MDA-MB-231; conditions: MDA-MB-231 cells, five-day treatment
# Description: as §2, §3, §4, §5
# [5] = tested on: exosomes from MCF-7 cells; experiment: Western blot of exosomal proteins (Alix, vimentin, mortalin), MCF-7; conditions: 48 hr treatment, vs negative controls
# Description: (§6) 7-7. Protein analysis by Western blotting. Exosomes were isolated from cell culture supernatants as described above. Protein concentrations were determined by measuring absorbance at 280 nm (Nanodrop 2000). Cultured cells were treated with PEG-SMR-Clu, SMR-CPP peptides, MKT-077, Omeprazole or DMA at 37° C. for 48 hr. To evaluate mortalin, vimentin and exosome expression, Western blot analysis was performed using anti-mortalin (Grp-75), anti-Vimentin and anti-Alix antibodies, respectively (FIG. 12).
# (§7) Exosomes and cell lysates were prepared by incubating 5-10 min at 95° C. in sample buffer. The lysates were subjected to SDS-PAGE under reducing conditions (150 mM DTT) in 4-20% Criterion™ TGX™ precast gels (BioRad, Hercules, Calif.) and then transferred onto a nitrocellulose membrane (Bio-Rad, Hercules, Calif.). Nitrocellulose membranes were blocked with 5% skim milk (MedSupply, Atlanta, Ga.) in TBS containing 0.05% Tween 20 (TBST) for 1 h at room temperature. The membranes were treated with anti-mortalin (Grp-75) mAb or anti-α-tubulin mAb for cell lysates (FIG. 15, Panels A and B) or with anti-Alix and anti-vimentin or anti-mortalin for exosomes (FIG. 12), followed by peroxidase-conjugated goat anti-mouse IgG. Bands were developed with an ECL chemiluminescent substrate (Santa Cruz Biotechnology, Santa Cruz, Calif.) and exposed to an ImageQuant LAS 4000 imaging system (GE Healthcare, Piscataway, N.J. 08854).
# [6] = tested on: MDA-MB-231 exosomes; experiment: Western blot of exosomal proteins (Alix, vimentin, mortalin), MDA-MB-231; conditions: MDA-MB-231 cells, 48 hr treatment
# Description: as §6, §7
# [7] = tested on: K562 exosomes; experiment: Western blot of exosomal proteins (Alix, vimentin, mortalin), K562; conditions: K562 cells, 48 hr treatment
# Description: as §6, §7
# [8] = tested on: MDA-MB-231 cells; experiment: TUNEL apoptosis assay, MDA-MB-231; conditions: 48 hours, MKT-077 925 nM/mL, DMA 300 μM/mL, Omeprazole 200 μM/mL, paclitaxel 1.6 uM/mL, cisplatin 2 mg/mL
# Description: (§8) 7-8. Apoptosis assay by flow cytometry. For assessment of apoptosis, MCF-7 and MDA-MB-231 breast cancer cells and were seeded into 6-well plates at 4×10^5 cells per well and treated for 48 hours with 925 nM/mL of MKT-077 on MDA-MB-231 cells, 500 nM/mL of MKT-077 on MCF-7 cells, 337.5 nM/mL of MKT-077 on K562 cells, 300 μM/mL of DMA, 200 μM/mL of Omeprazole, 1.6 uM/mL of paclitaxel, 2 mg/mL of cisplatin, or combined treatment with either paclitaxel or cisplatin in combination with each of the three mortalin inhibitors. Apoptosis was determined using the TUNEL detection kit (Nexcelom, MA) and GUAVA easyCyte HT (EMD Millipore Corporation, Temecula, Calif.) system for fluorometric detection. (FIG. 13).
# [9] = tested on: MCF-7 cells; experiment: TUNEL apoptosis assay, MCF-7; conditions: 48 hours, MKT-077 500 nM/mL, DMA 300 μM/mL, Omeprazole 200 μM/mL, paclitaxel 1.6 uM/mL, cisplatin 2 mg/mL
# Description: as §8
# [10] = tested on: K562 cells; experiment: TUNEL apoptosis assay, K562; conditions: 48 hours, MKT-077 337.5 nM/mL, DMA 300 μM/mL, Omeprazole 200 μM/mL, paclitaxel 1.6 uM/mL, cisplatin 2 mg/mL
# Description: as §8
Compound,reduced migration by [1] [%],reduced migration by [2] [%],average AChE concentration days 1 to 5 [3] [mU/mL],average AChE concentration day 1 to 5 [4] [mU/mL],Alix expression in exosomes [5],Mortalin expression in exosomes [5],Vimentin expression in exosomes [5],Mortalin expression in exosomes [6],Vimentin expression in exosomes [6],Alix expression in exosomes [7],Mortalin expression in exosomes [7],Vimentin expression in exosomes [7],apoptosis (TUNEL) [8] [%],apoptosis (TUNEL) [9] [%],apoptosis (TUNEL) [10] [%]
"C/C1=C/C(=O)O[C@@H]2C[C@@H](CC[C@H](C)/C=C\C=C\CC1)O[C@@](O)([C@@H]1CSC(=O)N1)C2 [latrunculin A, reference compound]",53.05,50.39,,,,,,,,,,,,,
"CCn1c(=Cc2cccc[n+]2CC)sc(=C2Sc3ccccc3N2C)c1=O.[Cl-] [MKT-077, 1-Ethyl-2-[[3-ethyl-5-(3-methyl-2(3H)-benzothiazolylidene)-4-oxo-2-thiazolidinylidene]methyl]-pyridinium chloride]",,,22,29,significantly decreased,significantly decreased,significantly decreased,No significant change,no significant change,significantly decreased,significantly decreased,significantly,52.13,90.1,82.7
